# Measured values from US4866065A, “Imidazothienopyrimidines useful in psychopharmaceutical preparations” (A/S Ferrosan, priority 1987, dated 1989).
# Tested on: benzodiazepine receptors
# Assay: in vivo displacement of 3H-flunitrazepam specific binding to brain benzodiazepine receptors in mice
# Parameters: species or system mice (female, NMR)
# Conditions: intraperitoneal, test substance 15 min before 3H-FNM i.v., sacrificed 20 min after 3H-FNM, forebrain
# Excerpt: The pharmaceutical properties of the compounds of the invention can be illustrated by determining their capability for displacing radioactive labelled flunitrazepam from benzodiazepine receptors.
# The displacement activity of the compounds of the invention may be found by determining the ED50 value. The ED50 value represents the dose (mg/kg) of a test substance which causes the specific binding of flunitrazepam to benzodiazepine receptors in a living brain to be reduced to 50% of the oontrol value.
# Such an in vivo test is carried out as follows:
# Principle. Twenty minutes after a dose of ^3 H-flunitrazepam (^3 H-FNM) (200 μCi/kg, i.v.) the amount of specific ^3 H-FNM binding to brain benzodiazepine receptors has reached its maximal value.
# Test procedure. Suspensions of test substances (2 mg/ml) are prepared in 5% Duphasol-X (TM Duphar, castor oil-ethylene oxide derivative for emulsifying and solubilizing Oil and other water-insoluble substances) by sonification for 10 min using a Branson B15 microtip ultrasonifier (setting 7). Groups of three mice (female, NMR, 18-22 grams) are injected with the test substance at 100 mg/kg intraperitoneally. Fifteen minutes after test substance administration the mice are challenged with 4 μCi intravenously of ^3 H-FNM (70-90 Ci/mole) in 200 μl physiological saline. Twenty minutes after ^3 H-FNM administration mice are sacrificed by decapitation, the forebrains rapidly excised (within 30 sec) and homogenized in 12 ml of icecold 25 mM KH2 PO4, pH 7.1, using an Ultra-Turrax homogenizer fitted with an N 10 shaft. […] The amounts of radioactivity on the filters are determined by conventional scintillation counting. […]
# Results. The ED50 value is determined from dose response curves. If only one dose of test substance is administered the ED50 value is calculated as follows, provided that the inhibition of specific binding is within the range of 25-75%: [formula] where Co is specific binding in controls and Cx is specific binding in mice treated with test substance.
row,SMILES,ED50 (dose reducing specific binding of flunitrazepam to benzodiazepine receptors in living brain to 50% of control)
1,"Cn1c(=O)c2sccc2n2cnc(-c3noc(C4CC4)n3)c12 [Compound 3, 3-(5-cyclopropyl-1,2,4-oxadiazol-3-yl)-4,5-dihydro-4-methyl-5-oxo-imidazo[1,5-a]thieno[2,3-e]pyrimidine]",0.6 mg/kg
2,"Cn1c(=O)c2sccc2n2cnc(-c3nc(C4CC4)no3)c12 [Compound 8, 3-(3-cyclopropyl-1,2,4-oxadiazol-5-yl)-4,5-dihydro-4-methyl-5-oxo-imidazo[1,5-a]thieno[2,3-e]pyrimidine]",0.9 mg/kg
3,"Cc1noc(-c2ncn3c4ccsc4c(=O)n(C)c23)n1 [Compound 10, 4,5-dihydro-4-methyl-3-(3-methyl-1,2,4-oxadiazol-5-yl)-5-oxo-imidazo[1,5-a]thieno[2,3-e]pyrimidine]",1.8 mg/kg
